# Assays:
# [1] = molecular target: Transient receptor potential cation channel subfamily A member 1 (Rattus norvegicus, UniProt Q6RI86); assay: Antagonist activity at rat TRPA1 expressed in HEK293 cells assessed as inhibition of BITC-induced increase in intracellular calcium concentration by Fluo4-AM based fluorometric assay
# [2] = molecular target: Transient receptor potential cation channel subfamily A member 1 (Homo sapiens, UniProt O75762); assay: Antagonist activity at human TRPA1 expressed in HEK293 cells assessed as inhibition of 5H-dibenzo[b,e]azepine-10-carboxylic acid methyl ester-induced increase in intracellular calcium by Fluo4-AM based fluorometric assay
# Chain of Transient receptor potential cation channel subfamily A member 1 (Homo sapiens, UniProt O75762) (O75762 whole entry): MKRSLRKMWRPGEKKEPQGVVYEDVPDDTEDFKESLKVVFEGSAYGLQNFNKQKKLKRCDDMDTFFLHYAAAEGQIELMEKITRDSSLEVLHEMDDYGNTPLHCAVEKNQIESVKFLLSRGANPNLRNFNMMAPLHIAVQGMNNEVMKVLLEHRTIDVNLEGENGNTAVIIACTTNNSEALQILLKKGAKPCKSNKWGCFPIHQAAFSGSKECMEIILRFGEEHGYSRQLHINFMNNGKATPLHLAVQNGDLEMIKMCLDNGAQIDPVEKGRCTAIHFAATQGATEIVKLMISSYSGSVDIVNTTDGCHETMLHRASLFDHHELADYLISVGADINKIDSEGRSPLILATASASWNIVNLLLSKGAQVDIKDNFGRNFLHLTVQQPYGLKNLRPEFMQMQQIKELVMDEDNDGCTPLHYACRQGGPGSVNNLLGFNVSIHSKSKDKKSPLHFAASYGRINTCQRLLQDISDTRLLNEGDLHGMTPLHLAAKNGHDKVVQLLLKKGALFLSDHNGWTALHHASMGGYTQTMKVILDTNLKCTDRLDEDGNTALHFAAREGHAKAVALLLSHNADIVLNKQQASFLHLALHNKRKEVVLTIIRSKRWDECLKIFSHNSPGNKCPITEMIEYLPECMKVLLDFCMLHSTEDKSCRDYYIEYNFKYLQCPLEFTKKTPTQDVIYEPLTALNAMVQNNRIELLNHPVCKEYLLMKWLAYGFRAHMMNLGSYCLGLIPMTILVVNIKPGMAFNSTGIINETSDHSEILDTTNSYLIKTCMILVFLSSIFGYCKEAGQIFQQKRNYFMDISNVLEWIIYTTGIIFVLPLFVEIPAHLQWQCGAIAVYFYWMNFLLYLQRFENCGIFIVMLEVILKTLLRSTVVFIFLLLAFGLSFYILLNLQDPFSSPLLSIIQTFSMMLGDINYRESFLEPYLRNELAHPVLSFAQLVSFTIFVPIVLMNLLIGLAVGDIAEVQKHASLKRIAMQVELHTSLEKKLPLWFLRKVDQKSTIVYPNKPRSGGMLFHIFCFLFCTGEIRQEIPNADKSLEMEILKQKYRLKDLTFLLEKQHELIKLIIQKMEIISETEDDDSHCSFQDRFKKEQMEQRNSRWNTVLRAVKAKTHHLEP
# Chain of Transient receptor potential cation channel subfamily A member 1 (Rattus norvegicus, UniProt Q6RI86) (Q6RI86 whole entry E27K): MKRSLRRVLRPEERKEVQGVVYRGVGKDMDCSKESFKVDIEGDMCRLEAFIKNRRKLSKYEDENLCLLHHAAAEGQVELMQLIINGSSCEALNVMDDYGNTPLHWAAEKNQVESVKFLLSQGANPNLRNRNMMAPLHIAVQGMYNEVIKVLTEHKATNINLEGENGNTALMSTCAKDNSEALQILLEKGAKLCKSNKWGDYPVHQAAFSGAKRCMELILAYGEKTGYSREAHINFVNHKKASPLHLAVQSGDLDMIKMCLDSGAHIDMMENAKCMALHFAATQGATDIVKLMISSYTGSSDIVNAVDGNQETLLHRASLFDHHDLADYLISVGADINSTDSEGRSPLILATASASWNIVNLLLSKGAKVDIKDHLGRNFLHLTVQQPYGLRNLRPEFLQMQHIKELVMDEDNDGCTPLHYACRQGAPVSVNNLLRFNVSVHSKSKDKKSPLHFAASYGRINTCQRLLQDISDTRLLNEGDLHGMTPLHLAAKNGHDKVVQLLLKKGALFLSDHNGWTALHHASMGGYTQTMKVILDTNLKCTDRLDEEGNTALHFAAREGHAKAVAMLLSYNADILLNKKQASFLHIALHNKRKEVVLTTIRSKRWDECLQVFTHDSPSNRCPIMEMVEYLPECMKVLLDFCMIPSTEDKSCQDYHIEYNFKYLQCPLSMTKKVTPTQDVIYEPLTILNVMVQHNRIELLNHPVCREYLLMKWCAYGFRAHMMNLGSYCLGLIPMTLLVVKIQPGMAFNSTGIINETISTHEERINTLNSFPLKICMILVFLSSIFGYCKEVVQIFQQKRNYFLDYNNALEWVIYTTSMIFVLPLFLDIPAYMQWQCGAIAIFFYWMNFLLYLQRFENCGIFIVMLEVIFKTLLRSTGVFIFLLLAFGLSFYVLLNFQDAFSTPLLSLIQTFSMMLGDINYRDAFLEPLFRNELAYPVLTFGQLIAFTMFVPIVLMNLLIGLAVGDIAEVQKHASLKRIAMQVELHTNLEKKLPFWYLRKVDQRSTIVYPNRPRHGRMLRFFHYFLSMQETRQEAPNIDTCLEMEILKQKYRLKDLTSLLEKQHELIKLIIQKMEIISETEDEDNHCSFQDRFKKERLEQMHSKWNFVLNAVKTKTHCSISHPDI
SMILES,IC50 [1] [µM],IC50 [2] [µM]
O=C1N=C2c3ccccc3C(=O)C2C(c2ccccc2)N1 (stereo not given),> 10,> 10
O=C(O)c1cccc(C2NC(=S)N=C3c4ccccc4C(=O)C32)c1 (stereo not given),> 10,> 10
COc1ccc(OC)c(C2NC(=S)N=C3c4ccccc4C(=O)C32)c1 (stereo not given),> 10,> 10
CN(C)CCCOc1cccc(C2NC(=S)N=C3c4ccccc4C(=O)C32)c1 (stereo not given),> 10,> 10
S=C1N=C(c2ccccc2)CC(c2ccccc2)N1 (stereo not given),–,> 10
S=C1N=C2c3ccccc3CCC2C(c2ccccc2)N1 (stereo not given),–,> 10
S=C1N=C2C(=Cc3ccccc3)CCCC2C(c2ccccc2)N1 (stereo not given),–,> 10
S=C1N=C2CCCC2C(c2ccccc2)N1 (stereo not given),–,> 10
S=C1N=C2CCCCC2C(c2ccccc2)N1 (stereo not given),–,> 10
O=C1CCCC2=NC(=S)NC(c3ccccc3)C12 (stereo not given),–,> 10
CC1=NC(=S)NC(c2ccccc2)C1C(=O)c1ccccc1 (stereo not given),–,> 10

# Reference: BindingDB's records for doi:10.1016/j.bmcl.2011.12.068 (Janssen Pharmaceutica, 2012)
